The results in this text go back to patent US20090169700A1, “Healthy Food Product” (priority 2006, published 2009).

Ends that are not written are not given here.

The nature of the series: Water solubility at 20° C. and pH 6.5 (turbid appearance, 10 mg peptide in 10 ml de-mineralised water). It counts as physicochemical.

As for EAEWEY [EAEWEY], the “Peptide category (water solubility)” value is “Soluble peptides”.

As to AAAAAAAA [AAAAAAAA], the “Peptide category (water solubility)” value was “Insoluble peptides”. For the compound `C[C@H](N)C(=O)N[C@@H](C)C(=O)N[C@@H](C)C(=O)N[C@@H](C)C(=O)N[C@@H](C)C(=O)N[C@@H](C)C(=O)O` [AAAAAA], the “Peptide category (water solubility)” value is on record as “Insoluble peptides”.

As to LLLLLL [LLLLLL], the “Peptide category (water solubility)” value is “Insoluble peptides”. Consider GSGGSG [GSGGSG], for which the “Peptide category (water solubility)” value is reported as “Soluble peptides”. For the compound VEWEME [VEWEME], the “Peptide category (water solubility)” value is recorded as “Soluble peptides”. The entry for DDDDDD [DDDDDD] is “Soluble peptides”.
